Measured values published in ChEMBL document CHEMBL5244229, “Thiazole-containing compounds as therapeutic targets for cancer therapy” (Eur J Med Chem, 2020).
Converted amounts (≈) assume the structure as drawn.

Assays:
MCF7 [1] = assay: Antitumor activity against human MCF7 cells; format: functional, cell-based
HepG2 [2] = assay: Antitumor activity against human HepG2 cells; format: functional, cell-based
HepG2 [3] = assay: Cytotoxicity against human HepG2 cells; format: functional, cell-based
HepG2 [4] = assay: Cytotoxicity against human HepG2 cells assessed as reduction in cell viability measured after 48 hrs by MTS assay; format: functional, cell-based; conditions: HepG2, 48 h
HeLa [5] = assay: Cytotoxicity against human HeLa cells; format: functional, cell-based
[6] = target: Vascular endothelial growth factor receptor 2 (Homo sapiens) (UniProt P35968); assay: Inhibition of VEGFR2 (unknown origin) at 20 uM using 5-FAM-KKKKEEIYFFF-CONH2 as substrate incubated for 1 hr in presence of ATP by kinase glo-assay relative to control
HepG2 [7] = assay: Cytotoxicity against human HepG2 cells assessed as reduction in cell viability incubated for 24 hrs by WST-1 assay; format: functional, cell-based; conditions: HepG2, 24 h
SK-HEP1 = assay: Cytotoxicity against human SK-HEP1 cells; format: functional, cell-based
Hep 3B2 = assay: Cytotoxicity against human Hep3B cells; format: functional, cell-based
SNU-638 = assay: Cytotoxicity against human SNU-638 cells; format: functional, cell-based
MKN-74 = assay: Cytotoxicity against human MKN-74 cells; format: functional, cell-based
[8] = Cytotoxicity against human SNU-216 cells; format: functional, cell-based
AGS = assay: Cytotoxicity against human AGS cells; format: functional, cell-based
HeLa [9] = assay: Cytotoxicity against human HeLa cells assessed as reduction in cell viability measured after 48 hrs by MTS assay; format: functional, cell-based
K562 [10] = assay: Cytotoxicity against human K562 cells assessed as reduction in cell viability measured after 48 hrs by MTS assay; format: functional, cell-based; conditions: K562, 48 h
Colon cell line = assay: Cytotoxicity against human Colon cell line; format: functional, cell-based; conditions: Homo sapiens, Colon cell line
MDA-MB-435 = assay: Cytotoxicity against human MDA-MB-435 cells; format: functional, cell-based
MV4-11 = assay: Anticancer activity against human MV4-11 cells; format: functional, cell-based
HCT-116 [11] = assay: Anticancer activity against human HCT-116 cells; format: functional, cell-based
K562 [12] = assay: Anticancer activity against human K562 cells; format: functional, cell-based
MCF7 [13] = assay: Cytotoxicity against human MCF7 cells; format: functional, cell-based
A549 = assay: Antiproliferative activity against human A549 cells; format: functional, cell-based
HEK293 = assay: Antiproliferative activity against human HEK293 cells; format: functional
HCT-116 [14] = assay: Antiproliferative activity against human HCT-116 cells assessed as reduction in cell viability; format: functional, cell-based
MCF7 [15] = assay: Anticancer activity against human MCF7 cells; format: functional, cell-based
HepG2 [16] = assay: Anticancer activity against human HepG2 cells; format: functional, cell-based
[17] = target: Epidermal growth factor receptor (Homo sapiens, UniProt P00533); assay: Inhibition of EGFR (unknown origin)
Chain of Epidermal growth factor receptor (P00533 whole entry): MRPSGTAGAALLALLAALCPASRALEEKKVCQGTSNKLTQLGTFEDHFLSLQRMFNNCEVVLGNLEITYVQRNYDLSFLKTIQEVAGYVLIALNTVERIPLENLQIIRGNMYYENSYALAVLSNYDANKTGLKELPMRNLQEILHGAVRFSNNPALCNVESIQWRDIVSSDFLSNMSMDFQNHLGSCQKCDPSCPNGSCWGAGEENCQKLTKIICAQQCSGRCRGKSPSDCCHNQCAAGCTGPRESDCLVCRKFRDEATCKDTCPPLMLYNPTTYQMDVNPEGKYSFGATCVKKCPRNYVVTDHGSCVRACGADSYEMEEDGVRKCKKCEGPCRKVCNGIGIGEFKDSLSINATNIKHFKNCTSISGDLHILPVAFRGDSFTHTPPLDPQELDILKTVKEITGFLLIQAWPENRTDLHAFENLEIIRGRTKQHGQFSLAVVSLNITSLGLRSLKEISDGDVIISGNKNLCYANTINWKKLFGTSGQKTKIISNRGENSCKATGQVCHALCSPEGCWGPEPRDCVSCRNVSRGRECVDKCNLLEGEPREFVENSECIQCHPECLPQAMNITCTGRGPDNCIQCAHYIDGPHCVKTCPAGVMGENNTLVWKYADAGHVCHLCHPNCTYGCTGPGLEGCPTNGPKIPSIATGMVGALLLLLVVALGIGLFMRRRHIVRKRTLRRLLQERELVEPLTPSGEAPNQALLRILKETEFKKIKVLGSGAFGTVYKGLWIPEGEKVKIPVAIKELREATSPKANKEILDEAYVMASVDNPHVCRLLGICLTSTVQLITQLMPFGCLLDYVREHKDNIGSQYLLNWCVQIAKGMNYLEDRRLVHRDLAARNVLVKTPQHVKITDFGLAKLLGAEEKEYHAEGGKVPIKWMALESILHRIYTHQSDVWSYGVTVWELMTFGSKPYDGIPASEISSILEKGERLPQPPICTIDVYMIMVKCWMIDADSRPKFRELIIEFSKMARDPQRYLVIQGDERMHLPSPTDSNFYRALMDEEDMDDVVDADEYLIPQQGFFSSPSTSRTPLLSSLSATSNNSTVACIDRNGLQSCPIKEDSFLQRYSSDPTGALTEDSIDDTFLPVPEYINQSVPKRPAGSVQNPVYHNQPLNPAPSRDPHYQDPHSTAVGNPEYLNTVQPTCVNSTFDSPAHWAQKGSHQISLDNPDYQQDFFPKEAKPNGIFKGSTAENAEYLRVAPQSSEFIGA

Chain of Vascular endothelial growth factor receptor 2 (Homo sapiens) (P35968 whole entry): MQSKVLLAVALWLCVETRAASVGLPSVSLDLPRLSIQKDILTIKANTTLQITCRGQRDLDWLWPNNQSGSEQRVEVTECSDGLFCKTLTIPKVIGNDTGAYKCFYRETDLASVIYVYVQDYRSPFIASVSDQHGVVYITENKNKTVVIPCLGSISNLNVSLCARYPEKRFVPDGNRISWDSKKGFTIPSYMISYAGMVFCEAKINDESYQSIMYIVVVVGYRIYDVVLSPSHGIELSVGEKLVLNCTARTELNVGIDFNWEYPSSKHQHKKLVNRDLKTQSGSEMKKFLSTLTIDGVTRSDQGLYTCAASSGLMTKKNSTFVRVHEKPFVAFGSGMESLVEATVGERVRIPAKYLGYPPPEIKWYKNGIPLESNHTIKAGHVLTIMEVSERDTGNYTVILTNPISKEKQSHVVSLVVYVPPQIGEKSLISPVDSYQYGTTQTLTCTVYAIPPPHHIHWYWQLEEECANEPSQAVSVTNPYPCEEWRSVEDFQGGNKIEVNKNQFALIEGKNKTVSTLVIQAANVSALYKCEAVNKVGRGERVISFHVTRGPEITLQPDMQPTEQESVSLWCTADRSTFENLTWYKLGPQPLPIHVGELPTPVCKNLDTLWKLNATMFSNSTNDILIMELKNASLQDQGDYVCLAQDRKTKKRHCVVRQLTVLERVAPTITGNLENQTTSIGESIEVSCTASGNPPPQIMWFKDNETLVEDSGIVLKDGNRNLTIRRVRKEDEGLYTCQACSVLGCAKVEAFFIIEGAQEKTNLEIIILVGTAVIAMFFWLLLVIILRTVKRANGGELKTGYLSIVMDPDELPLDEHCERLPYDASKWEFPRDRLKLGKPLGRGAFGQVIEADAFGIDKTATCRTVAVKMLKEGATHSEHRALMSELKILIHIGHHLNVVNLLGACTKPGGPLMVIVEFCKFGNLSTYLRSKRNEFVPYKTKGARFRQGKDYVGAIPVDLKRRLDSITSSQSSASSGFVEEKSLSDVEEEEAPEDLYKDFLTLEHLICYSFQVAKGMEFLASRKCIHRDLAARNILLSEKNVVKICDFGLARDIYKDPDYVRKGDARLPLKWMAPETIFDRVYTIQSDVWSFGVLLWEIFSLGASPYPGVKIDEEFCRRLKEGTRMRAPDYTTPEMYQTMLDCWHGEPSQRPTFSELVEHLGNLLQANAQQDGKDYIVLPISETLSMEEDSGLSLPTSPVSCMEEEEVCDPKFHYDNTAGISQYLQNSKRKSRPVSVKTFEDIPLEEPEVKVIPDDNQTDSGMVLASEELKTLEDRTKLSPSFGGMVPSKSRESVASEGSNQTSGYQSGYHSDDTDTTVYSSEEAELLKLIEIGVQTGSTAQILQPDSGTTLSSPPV

C/C(=N/Nc1nc(C)c(/N=N/c2ccccc2)s1)c1nnn(-c2ccccc2)c1C
IC50 (MCF7 [1]): 1120 nM
IC50 (HepG2 [2]): 3410 nM

Cc1nc(C(Cl)(Cl)S(=O)(=O)c2ccccc2)c([N+](=O)[O-])s1
CC50 (HepG2 [3]): < 2500 nM

COc1ccc(/C=C(/C#N)c2nc(-c3cc4ccccc4oc3=O)cs2)cc1
IC50 (HepG2 [4]): 2330 nM

O=C1N/C(=N/c2ccc(-c3nc4ccccc4o3)cc2)S/C1=C/c1ccc(Cl)cc1
IC50 (MCF7 [1]): 19 nM

COc1cccc2c1C(=O)c1c(O)c3c(c(O)c1C2=O)C[C@@](O)(C(=O)CO)C[C@@H]3O[C@H]1C[C@H](N)[C@H](O)[C@H](C)O1.Cl [DOXORUBICIN HYDROCHLORIDE]
GI50 (HeLa [5]): < 80 µg/mL

Cc1nc(C(Cl)(Cl)S(=O)(=O)c2ccc(F)cc2)c([N+](=O)[O-])s1
CC50 (HepG2 [3]): < 2500 nM

CC1=C(C(=O)Nc2nc(-c3ccccc3)cs2)C(c2ccc(Cl)cc2)C(C(=O)Nc2nc(-c3ccccc3)cs2)=C(C)N1
IC50 (HeLa [5]): 2 nM

O=C(Cc1csc2nc(-c3ccccc3)cn12)Nc1ccc(N2CCOCC2)nc1
inhibition [6]: 3.76%

COc1ccc(/N=N/c2sc(N/N=C(/C)c3sc(N)nc3C)nc2C)cc1
IC50 (HepG2 [7]): 500 nM

C=C(NC(=O)C(=C)NC(=O)c1csc(C2=N[C@@H]3c4csc(n4)[C@H]4NC(=O)c5csc(n5)C([C@](C)(O)[C@@H](C)O)NC(=O)[C@H]5CSC(=N5)/C(=C/C)NC(=O)C([C@@H](C)O)NC(=O)c5csc(n5)[C@]3(CC2)NC(=O)[C@H](C)NC(=O)C(=C)NC(=O)C(=C)NC(=O)[C@H](C(C)C)N[C@H]2C=Cc3c([C@H](C)O)cc(nc3[C@H]2O)C(=O)O[C@@H]4C)n1)C(N)=O (stereo partly drawn)
IC50 (HepG2 [3]): 1300 nM
IC50 (SK-HEP1): 1600 nM
IC50 (Hep 3B2): 1900 nM
IC50 (SNU-638): 910 nM
IC50 (MKN-74): 6210 nM
IC50 [8]: 750 nM
IC50 (AGS): 710 nM

CC1=C(C(=O)Nc2nc(-c3ccccc3)cs2)C(c2ccc([N+](=O)[O-])cc2)C(C(=O)Nc2nc(-c3ccccc3)cs2)=C(C)N1
IC50 (HeLa [5]): 3 nM

Cc1cccc(N(c2cccc(Cl)c2)c2c3ccccc3nc3scnc23)c1
IC50 (HeLa [9]): 5690 nM
IC50 (K562 [10]): 5690 nM

COc1ccc(-c2csc(NC(=O)CN3CCc4ccccc4C3)n2)cc1
LC50 (Colon cell line): 28 µg/mL (≈ 73.8 µM)

Nc1nc(-c2ccc(Oc3ccc(Cl)c(Cl)c3)cc2)cs1
IC50 (MDA-MB-435): 759 nM

COc1ccc(S(=O)(=O)Nc2ccc(-c3csc(N/N=C/c4ccc(N(CCCl)CCCl)cc4)n3)cc2)cc1
IC50 (MV4-11): 2170 nM
IC50 (HCT-116 [11]): 3.02 µg/mL (≈ 5 µM)

O=S(=O)(O)c1ccc(/N=N/C(=N\c2nc(-c3ccccc3)cs2)c2cc3ccccc3nc2Cl)cc1
IC50 (K562 [12]): 13000 nM
IC50 (MCF7 [13]): 16000 nM

C/C=C1\NC(=O)[C@H]([C@@H](C)O)NC(=O)c2csc(n2)-c2ccc(-c3nc(-c4nc(C(=O)N/C(=C/C)C(=O)NC[C@@H](C)O)cs4)cs3)nc2-c2csc(n2)[C@H]([C@@H](C)O)NC(=O)c2csc(n2)[C@H](C(C)(C)O)NC(=O)c2csc1n2
IC50 (HepG2 [3]): 1340 nM
IC50 (SK-HEP1): 2120 nM
IC50 (Hep 3B2): 2340 nM
IC50 (SNU-638): 990 nM
IC50 (MKN-74): 11000 nM
IC50 [8]: 7500 nM
IC50 (AGS): 1430 nM

CCCCCCCC(=O)SCC/C=C/[C@@H]1CC(=O)NCc2nc(cs2)C2=N[C@@](C)(CS2)C(=O)N[C@@H](c2ccccc2)C(=O)O1
GI50 (A549): 1460 nM
GI50 (HEK293): > 100000 nM
IC50 (HCT-116 [14]): 390 nM

C/C(=N/Nc1nc(C)c(/N=N/c2ccccc2)s1)c1sc(N)nc1C
IC50 (HepG2 [7]): 840 nM

C/C(=N/N=c1/[nH]c(-c2ccccc2)c(/N=N/c2ccccc2)s1)[C@H]1CC[C@H]2[C@@H]3CCC4=CC(=O)CC[C@]4(C)[C@H]3CC[C@]12C
IC50 (MCF7 [15]): 5280 nM

Cc1ccc(S(=O)(=O)C(Cl)(Cl)c2nc(C)sc2[N+](=O)[O-])cc1
CC50 (HepG2 [3]): < 2500 nM
CC50 (Colon cell line): 1000 nM

C/C(=N\NC(=O)c1sc(-c2ccccc2)nc1C)C1=NN(C)C(/N=N/C(=O)c2sc(-c3ccccc3)nc2-c2ccc(C)cc2)C1 (stereo not drawn)
IC50 (HepG2 [16]): 1.61 µg/mL (≈ 2.49 µM)

N#Cc1ccc(S(=O)(=O)Nc2ccc(-c3csc(N/N=C/c4ccc(N(CCCl)CCCl)cc4)n3)cc2)cc1
IC50 (MV4-11): 2170 nM
IC50 (HCT-116 [11]): 3.02 µg/mL (≈ 5.04 µM)

C/C=C1\NC(=O)[C@H]([C@@H](C)O)NC(=O)c2csc(n2)-c2ccc(-c3nc(-c4nc(C(=O)N/C(=C/C)C(=O)NC[C@H](C)O)cs4)cs3)nc2-c2csc(n2)[C@H]([C@@H](C)O)NC(=O)c2csc(n2)[C@H](C(C)C)NC(=O)c2csc1n2
IC50 (HepG2 [3]): 910 nM
IC50 (SK-HEP1): 830 nM
IC50 (Hep 3B2): 940 nM
IC50 (SNU-638): 410 nM
IC50 (MKN-74): 7300 nM
IC50 [8]: 440 nM
IC50 (AGS): 500 nM

CCOC(=O)c1nn(-c2ccc(Cl)cc2Cl)/c(=N/NC(=O)c2sc(-c3ccccc3)nc2C)s1
IC50 (HepG2 [2]): 820 nM

CCOC(=O)c1csc(NC(=S)Nc2ccc(Cl)cc2)n1
IC50 [17]: 10100 nM

C/C(=N/Nc1nc(C)c(/N=N/c2ccc(Cl)cc2)s1)c1sc(N)nc1C
IC50 (HepG2 [7]): 520 nM
